Measured values as given in ChEMBL document CHEMBL1201862, “PubChem BioAssay data set” (2004).
Active and inactive are the calls of the source. Rule as the data show it, for most assays here: actives have a measured EC50 and inactives only a lower limit.

Legend:
[1] = NIH-3T3 fibroblast cytotoxicity, dose response, cytotoxicity control, cell-based, fluorescence, Alamar Blue, secondary assay (AID 2327); format: functional;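 also: NIH-3T3 mouse fibroblasts cultured with fluconazole at 8 µg/mL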
[2] = fluconazole-exposed Candida albicans growth modulators – fluorescence, retest, confirmation (AID 2467); format: functional, cell-based
[3] = target: ATP-dependent molecular chaperone HSP82 (Candida albicans (strain WO-1) (Yeast), UniProt C4YTQ8); experiment: steroid-induced GRE reporter decrease in yeast – S. cerevisiae, luminescence, Hsp90 inhibitor project, dose response (AID 2400); format: functional, cell-based;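 also: beta-galactosidase luminescence from glucocorticoid response element reporter as proxy for Hsp90 function; inhibitor potency where signal loss means Hsp90 inhibition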
[4] = target: T1, Serine/threonine-protein phosphatase (Candida dubliniensis (strain CD36 / CBS 7987 / NCPF 3949 / NRRLY-17841) (Yeast), UniProt B9W6M3); experiment: blockers of CaCl2-induced CDRE-lacZ signaling – S. cerevisiae, luminescence, secondary, dose response (AID 2388); format: functional, cell-based;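 also: yeast reporter cells carrying a calcineurin-responsive lacZ construct stimulated with calcium chloride; luminescent beta-galactosidase reporter signal in whole cells rather than isolated phosphatase activity; potency for inhibition where a drop in reporter signal means calcineurin blockade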
T1 sequence (B9W6M3 whole entry): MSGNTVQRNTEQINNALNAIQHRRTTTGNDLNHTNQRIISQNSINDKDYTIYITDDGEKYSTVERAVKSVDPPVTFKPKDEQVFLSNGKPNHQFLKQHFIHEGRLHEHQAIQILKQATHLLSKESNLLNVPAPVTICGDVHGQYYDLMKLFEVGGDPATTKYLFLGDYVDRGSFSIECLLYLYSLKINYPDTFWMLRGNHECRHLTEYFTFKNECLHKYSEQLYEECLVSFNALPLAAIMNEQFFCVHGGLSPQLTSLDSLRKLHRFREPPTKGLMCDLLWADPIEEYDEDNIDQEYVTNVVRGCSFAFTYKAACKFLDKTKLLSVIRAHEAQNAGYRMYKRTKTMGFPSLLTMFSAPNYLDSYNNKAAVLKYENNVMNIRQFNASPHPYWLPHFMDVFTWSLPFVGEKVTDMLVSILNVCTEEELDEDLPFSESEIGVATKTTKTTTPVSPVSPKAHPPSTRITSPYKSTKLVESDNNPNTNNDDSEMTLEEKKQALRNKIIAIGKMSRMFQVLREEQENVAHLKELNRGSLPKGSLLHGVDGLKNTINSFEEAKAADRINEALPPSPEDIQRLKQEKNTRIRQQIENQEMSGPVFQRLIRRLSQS

Genome polyprotein = Genome polyprotein (dengue virus type 2, UniProt P29990); experiment: flavivirus cap methylation enzyme inhibition – biochemical, confirmation dose response, primary screen (AID 588689); format: functional
Protein RecA = target: T2, Protein RecA (Mycobacterium tuberculosis, UniProt P9WHJ3); experiment: Fluorescence Cell-Free Homogeneous Dose Retest to Identify Inhibitors of RecA-Intein Splicing Activity. [Related pubchem assays (depositor defined):AID2097, AID2223, AID489010, AID492950]; format: functional
T2 sequence (P9WHJ3 whole entry): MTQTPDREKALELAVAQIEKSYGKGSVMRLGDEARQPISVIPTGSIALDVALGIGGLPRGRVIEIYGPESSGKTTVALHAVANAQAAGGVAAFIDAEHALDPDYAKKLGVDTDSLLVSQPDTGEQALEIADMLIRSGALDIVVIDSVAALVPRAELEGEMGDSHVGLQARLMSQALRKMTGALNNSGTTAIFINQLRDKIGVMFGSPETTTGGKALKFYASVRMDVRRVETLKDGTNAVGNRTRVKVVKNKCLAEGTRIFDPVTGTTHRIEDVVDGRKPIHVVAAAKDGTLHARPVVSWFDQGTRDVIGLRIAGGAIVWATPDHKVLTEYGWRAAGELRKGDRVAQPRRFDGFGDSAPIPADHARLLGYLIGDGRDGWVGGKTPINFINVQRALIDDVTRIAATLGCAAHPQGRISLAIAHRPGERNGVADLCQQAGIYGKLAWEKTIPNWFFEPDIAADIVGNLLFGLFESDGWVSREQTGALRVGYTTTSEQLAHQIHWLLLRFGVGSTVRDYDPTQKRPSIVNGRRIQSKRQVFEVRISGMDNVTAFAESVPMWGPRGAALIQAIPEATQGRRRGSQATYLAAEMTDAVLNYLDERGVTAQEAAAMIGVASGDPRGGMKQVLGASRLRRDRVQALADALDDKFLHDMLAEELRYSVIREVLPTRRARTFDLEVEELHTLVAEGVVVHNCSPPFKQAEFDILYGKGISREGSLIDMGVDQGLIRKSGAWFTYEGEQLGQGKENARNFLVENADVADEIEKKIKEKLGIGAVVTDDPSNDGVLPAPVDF

[5] = target: T3, Replicative DNA helicase DnaB (Mycobacterium tuberculosis, UniProt P9WMR3); experiment: DnaB intein splicing inhibitors, dose response, biochemical, cell-free fluorescence (AID 449749); format: functional
T3 sequence (P9WMR3 whole entry): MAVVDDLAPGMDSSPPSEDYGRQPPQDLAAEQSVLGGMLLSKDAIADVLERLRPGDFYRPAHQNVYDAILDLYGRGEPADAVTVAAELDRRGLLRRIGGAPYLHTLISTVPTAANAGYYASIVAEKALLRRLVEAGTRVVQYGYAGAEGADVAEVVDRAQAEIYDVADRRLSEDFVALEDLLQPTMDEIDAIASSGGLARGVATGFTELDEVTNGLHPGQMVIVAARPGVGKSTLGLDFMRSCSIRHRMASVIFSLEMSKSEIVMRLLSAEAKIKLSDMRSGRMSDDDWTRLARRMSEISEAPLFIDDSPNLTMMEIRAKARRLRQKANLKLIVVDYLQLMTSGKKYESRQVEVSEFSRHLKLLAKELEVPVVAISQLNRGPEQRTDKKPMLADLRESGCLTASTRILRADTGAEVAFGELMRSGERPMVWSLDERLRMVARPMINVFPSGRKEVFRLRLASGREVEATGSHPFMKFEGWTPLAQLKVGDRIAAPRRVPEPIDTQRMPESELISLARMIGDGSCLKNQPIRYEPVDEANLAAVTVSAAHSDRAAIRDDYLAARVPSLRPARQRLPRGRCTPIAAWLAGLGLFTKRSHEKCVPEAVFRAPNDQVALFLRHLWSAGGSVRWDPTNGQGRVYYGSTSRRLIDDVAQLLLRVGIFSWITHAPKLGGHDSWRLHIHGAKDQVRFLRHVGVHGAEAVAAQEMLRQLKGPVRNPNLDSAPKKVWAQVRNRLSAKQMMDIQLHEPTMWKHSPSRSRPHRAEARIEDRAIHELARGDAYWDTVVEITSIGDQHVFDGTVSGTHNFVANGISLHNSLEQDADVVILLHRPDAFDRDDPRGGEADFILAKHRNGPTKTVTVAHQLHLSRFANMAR

[6] = HEK-293T viability loss after treatment – luminescence, T-cell screen hits, cytotoxicity control for TCR NF-kB inhibitor project, dose response (AID 489026); format: functional, cell-based;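 also: cells exposed to compound about 14 hours before the viability readout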
[7] = THP-1 cell cytotoxicity, dose response, cytotoxicity control for non-replicating M. tuberculosis project (AID 489025); format: functional
BJ [8] = experiment: BJ-TERT-LT-ST fibroblast viability loss – cell-based, RAS-independent, luminescence, dose response (AID 1935); format: functional; conditions: Homo sapiens;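 also: BJ fibroblasts immortalized with TERT plus LT and ST oncogenes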
cells = format: functional
[9] = Vero E6 cell cytotoxicity, dose response, cytotoxicity control for non-replicating M. tuberculosis project, secondary assay (AID 492998); format: functional, VeroE6; conditions: Vero C1008
BJ [10] = experiment: BJ-TERT fibroblast viability loss – cell-based, RAS-independent, luminescence, dose response (AID 1933); format: functional; conditions: Homo sapiens
[11] = DRD fibroblast viability loss – cell-based, non-viral oncogenic, luminescence, dose response (AID 1934); format: functional; conditions: Homo sapiens
[12] = viability of uninfected HEp-2 cells – cell-based, HTS, cytotoxicity control for RSV inhibitor project, dose response (AID 2410); format: functional; conditions: human respiratory syncytial virus
BJ [13] = experiment: cells; format: functional, cell-based; conditions: Homo sapiens
[14] = target: T4, Carboxy-terminal domain RNA polymerase II polypeptide A small phosphatase 1 (Homo sapiens, UniProt Q9GZU7); experiment: CTDSP1 inhibitors, concentration-response, biochemical, absorbance readout, ultra-high-throughput screen actives (AID 540297); format: functional
T4 sequence (Q9GZU7 whole entry): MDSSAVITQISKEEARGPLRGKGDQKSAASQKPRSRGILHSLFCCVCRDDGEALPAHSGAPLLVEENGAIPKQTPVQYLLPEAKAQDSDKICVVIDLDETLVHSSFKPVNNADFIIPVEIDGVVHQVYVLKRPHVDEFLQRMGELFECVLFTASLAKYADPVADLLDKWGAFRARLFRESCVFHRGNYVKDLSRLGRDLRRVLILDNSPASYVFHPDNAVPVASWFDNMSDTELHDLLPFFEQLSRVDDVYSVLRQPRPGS

Fatty acid synthase [15] = target: T5, Fatty acid synthase (Homo sapiens, UniProt P49327); experiment: inhibition of human FAS-TE enzyme activity – biochemical, endpoint fluorescence intensity, uHTS hits, dose response (AID 624327); format: functional;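 also: fluorescence from hydrolysis of an O-methyl fluorescein acyl ester substrate by the enzyme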
Fatty acid synthase [16] = target: T5, Fatty acid synthase; experiment: inhibition of human FAS-TE enzyme activity – biochemical, kinetic fluorescence intensity, dose response (AID 624326); format: functional;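 also: rate of fluorescence rise from hydrolysis of a fluorogenic O-methyl fluorescein ester substrate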
Paired box protein Pax-8 = Paired box protein Pax-8 (Homo sapiens, UniProt Q06710); experiment: PAX8 transcriptional activity inhibition in RMG-I – RMG-I cells, luciferase, cherry-pick, dose response (AID 687027); format: functional, cell-based;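 also: luciferase reporter driven by Pax8 target thyroperoxidase promoter measured by SteadyGlo luminescence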
[17] = luciferase reporter signal suppression in cells – H4 neuroglioma cells, luminescence, dose response (AID 1990); format: functional, cell-based
[18] = Luminescence Cell-Based Dose Response HTS to Identify Inhibitors of 5'UTR Stem-Loop Driven Prion Protein mRNA Translation in H4 Neuroglioblastoma Cells. [Related pubchem assays: 1827 (Project Summary), 1813 (Primary HTS)]; format: functional
Streptococcus = experiment: GAS UMAA2166 growth inhibition – luminescence, BacTiterGlo, counter-screen for streptokinase expression inhibitor project, dose response (AID 1915); format: functional, organism-based;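 also: potency for reduction of bacterial viability or growth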
[19] = system: Streptococcus sp. 'group A'; experiment: Streptococcus pyogenes SK(-)GAS viability under kanamycin – luminescence, BacTiterGlo, confirmation, counter-screen for streptokinase expression inhibitor project, dose response (AID 1900); format: functional, organism-based
[20] = alpha-synuclein stem-loop luciferase translation blockers – H4 neuroglioma cells, luminescence, confirmation (AID 1988); format: functional, cell-based

Sequence of Genome polyprotein (P29990 2492-3391 limits assumed): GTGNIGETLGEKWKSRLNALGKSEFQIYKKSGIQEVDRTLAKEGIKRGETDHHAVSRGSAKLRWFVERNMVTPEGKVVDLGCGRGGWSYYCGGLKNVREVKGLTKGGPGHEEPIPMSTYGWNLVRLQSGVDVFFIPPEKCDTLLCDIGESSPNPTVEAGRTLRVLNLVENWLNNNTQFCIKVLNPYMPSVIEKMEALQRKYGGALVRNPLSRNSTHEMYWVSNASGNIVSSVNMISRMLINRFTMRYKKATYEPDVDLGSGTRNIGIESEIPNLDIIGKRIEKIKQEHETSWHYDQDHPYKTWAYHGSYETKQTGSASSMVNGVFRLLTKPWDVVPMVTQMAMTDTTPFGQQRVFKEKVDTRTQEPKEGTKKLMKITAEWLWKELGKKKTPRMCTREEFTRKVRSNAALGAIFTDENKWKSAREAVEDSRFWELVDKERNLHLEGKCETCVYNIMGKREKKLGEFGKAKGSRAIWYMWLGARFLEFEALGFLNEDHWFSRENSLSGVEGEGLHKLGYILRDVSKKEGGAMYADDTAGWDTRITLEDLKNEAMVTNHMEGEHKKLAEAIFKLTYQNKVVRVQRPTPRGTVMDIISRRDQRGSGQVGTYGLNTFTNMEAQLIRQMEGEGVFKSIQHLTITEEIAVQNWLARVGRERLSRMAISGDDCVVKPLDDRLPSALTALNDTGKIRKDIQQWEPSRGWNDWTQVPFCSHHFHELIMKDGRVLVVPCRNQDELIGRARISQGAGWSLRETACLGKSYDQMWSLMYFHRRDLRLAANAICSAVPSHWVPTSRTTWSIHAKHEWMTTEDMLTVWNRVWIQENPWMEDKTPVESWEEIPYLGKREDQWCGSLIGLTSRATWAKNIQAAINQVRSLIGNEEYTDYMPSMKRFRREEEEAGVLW
Sequence of ATP-dependent molecular chaperone HSP82 (C4YTQ8 whole entry): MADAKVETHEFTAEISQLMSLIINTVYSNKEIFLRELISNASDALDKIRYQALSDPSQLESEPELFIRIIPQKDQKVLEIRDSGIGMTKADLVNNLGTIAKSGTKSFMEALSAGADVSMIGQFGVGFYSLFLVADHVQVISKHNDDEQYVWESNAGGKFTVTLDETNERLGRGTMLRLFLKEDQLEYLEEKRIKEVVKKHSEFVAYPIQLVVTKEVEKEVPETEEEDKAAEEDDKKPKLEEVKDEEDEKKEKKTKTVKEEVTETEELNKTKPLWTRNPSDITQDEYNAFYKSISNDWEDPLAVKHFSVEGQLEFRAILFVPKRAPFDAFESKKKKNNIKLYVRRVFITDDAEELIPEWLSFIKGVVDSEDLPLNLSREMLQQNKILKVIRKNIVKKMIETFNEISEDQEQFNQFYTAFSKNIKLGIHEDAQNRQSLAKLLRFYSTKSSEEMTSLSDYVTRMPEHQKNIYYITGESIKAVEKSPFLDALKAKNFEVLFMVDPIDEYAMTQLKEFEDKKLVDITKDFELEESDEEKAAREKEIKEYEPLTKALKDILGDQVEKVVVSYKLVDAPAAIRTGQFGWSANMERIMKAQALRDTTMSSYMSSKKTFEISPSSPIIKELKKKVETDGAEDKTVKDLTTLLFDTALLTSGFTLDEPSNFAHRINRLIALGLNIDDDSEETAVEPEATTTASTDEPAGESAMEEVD
T5 sequence (P49327 whole entry): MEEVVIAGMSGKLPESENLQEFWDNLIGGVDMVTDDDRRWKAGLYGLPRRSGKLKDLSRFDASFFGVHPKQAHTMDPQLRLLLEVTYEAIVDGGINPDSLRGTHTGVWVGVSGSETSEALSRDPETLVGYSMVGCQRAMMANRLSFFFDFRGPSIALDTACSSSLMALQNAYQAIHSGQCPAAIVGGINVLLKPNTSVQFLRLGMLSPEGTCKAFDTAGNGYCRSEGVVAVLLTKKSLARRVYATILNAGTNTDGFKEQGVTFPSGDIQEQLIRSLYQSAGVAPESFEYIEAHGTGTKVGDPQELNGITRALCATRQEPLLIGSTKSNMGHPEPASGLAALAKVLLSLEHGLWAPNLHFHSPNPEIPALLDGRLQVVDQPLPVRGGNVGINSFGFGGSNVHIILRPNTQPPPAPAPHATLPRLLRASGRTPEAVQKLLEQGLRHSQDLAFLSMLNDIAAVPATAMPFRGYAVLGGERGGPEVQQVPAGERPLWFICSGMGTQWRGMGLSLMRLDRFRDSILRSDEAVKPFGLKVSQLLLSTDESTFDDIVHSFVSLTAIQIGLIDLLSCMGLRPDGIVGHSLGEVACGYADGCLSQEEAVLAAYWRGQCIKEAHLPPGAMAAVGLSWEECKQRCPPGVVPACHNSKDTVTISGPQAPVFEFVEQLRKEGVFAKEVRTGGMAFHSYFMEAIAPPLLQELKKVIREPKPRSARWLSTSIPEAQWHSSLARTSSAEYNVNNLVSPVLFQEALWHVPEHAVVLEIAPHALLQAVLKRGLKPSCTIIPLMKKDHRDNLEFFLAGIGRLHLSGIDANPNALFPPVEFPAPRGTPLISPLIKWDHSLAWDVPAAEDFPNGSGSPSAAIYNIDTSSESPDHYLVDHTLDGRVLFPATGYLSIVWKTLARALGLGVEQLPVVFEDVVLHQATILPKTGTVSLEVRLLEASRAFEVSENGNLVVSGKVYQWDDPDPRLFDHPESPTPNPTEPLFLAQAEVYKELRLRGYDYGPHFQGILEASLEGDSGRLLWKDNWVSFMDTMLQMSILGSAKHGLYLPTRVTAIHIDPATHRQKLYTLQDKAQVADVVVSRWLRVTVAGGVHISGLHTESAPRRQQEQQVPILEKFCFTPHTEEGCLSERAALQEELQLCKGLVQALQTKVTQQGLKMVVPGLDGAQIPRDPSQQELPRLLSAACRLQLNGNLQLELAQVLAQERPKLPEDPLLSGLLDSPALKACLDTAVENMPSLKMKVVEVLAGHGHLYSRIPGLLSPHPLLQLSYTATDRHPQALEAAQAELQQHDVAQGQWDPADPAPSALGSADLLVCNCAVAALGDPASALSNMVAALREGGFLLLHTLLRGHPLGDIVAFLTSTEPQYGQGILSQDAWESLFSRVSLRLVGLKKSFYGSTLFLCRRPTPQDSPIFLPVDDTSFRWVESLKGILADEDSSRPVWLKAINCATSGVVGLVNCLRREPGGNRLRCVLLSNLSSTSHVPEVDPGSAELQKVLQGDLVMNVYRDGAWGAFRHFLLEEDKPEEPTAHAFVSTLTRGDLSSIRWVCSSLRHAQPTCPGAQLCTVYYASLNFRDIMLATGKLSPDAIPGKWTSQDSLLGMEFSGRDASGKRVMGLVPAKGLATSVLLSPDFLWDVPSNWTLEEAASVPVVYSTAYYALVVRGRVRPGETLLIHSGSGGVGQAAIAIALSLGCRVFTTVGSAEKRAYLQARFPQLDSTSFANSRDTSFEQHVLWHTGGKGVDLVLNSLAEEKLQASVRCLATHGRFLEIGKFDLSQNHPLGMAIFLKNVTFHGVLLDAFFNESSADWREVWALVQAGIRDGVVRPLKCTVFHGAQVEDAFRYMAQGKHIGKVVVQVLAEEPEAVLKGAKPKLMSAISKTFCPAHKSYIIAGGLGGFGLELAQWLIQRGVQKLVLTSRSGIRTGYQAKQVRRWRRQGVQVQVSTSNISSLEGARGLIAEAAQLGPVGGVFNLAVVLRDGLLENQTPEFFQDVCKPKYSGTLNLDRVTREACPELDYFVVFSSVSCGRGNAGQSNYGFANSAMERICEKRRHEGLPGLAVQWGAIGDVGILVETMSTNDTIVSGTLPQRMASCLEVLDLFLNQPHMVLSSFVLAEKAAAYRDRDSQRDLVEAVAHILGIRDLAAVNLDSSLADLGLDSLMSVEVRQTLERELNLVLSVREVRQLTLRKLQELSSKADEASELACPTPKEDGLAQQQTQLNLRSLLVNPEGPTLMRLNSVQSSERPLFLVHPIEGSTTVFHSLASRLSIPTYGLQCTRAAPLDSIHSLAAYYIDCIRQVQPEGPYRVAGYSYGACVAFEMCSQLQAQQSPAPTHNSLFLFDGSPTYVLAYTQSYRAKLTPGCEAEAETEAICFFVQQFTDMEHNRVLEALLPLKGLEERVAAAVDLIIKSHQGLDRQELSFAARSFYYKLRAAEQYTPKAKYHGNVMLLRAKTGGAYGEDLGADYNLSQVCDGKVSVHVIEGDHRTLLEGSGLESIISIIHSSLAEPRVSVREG
Sequence of Paired box protein Pax-8 (Q06710 whole entry): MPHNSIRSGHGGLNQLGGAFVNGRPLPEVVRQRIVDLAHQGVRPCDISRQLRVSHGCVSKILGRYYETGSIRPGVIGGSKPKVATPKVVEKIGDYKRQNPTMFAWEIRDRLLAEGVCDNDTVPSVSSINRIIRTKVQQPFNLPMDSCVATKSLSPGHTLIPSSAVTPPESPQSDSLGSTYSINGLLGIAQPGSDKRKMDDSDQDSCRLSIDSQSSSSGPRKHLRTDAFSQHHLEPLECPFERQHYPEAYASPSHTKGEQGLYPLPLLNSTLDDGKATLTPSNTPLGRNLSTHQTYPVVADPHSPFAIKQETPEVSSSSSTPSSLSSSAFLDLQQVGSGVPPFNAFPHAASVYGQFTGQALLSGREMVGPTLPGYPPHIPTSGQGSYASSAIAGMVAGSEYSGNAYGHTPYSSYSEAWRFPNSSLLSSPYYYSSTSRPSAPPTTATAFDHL

COc1ccc(C(=O)N2c3ccccc3C=CC2C#N)cc1 (centres undefined)
EC50 [1]: > 160 µM (inconclusive)
EC50 [2]: 0.186 µM (active)
EC50 [3]: > 150 µM (inactive)
EC50 [4]: > 180 µM (inactive)

Cc1ccc(S(=O)(=O)NN2C(=O)/C(=C/c3cccc(F)c3)SC2=S)cc1
IC50 (Genome polyprotein): 27.2 µM (active)

Cc1ccc(N2C(=O)C(Cl)=C(N3CCN(C)CC3)C2=O)c(C)c1
EC50 (Protein RecA): 2.35 µM (active)
AC50 [5]: 8.01 µM (active)
IC50 (Genome polyprotein): 40.5 µM (active)

CSC(=Nc1ccc(Br)cc1F)NS(=O)(=O)c1cccs1
EC50 [1]: > 150 µM (inactive)
EC50 [2]: 0.239 µM (active)
EC50 [3]: 18.6 µM (active)
EC50 [4]: > 180 µM (inactive)

O=C(Oc1cc2oc(=O)c3c(c2cc1Cl)CCCC3)c1cccs1
EC50 [1]: > 150 µM (inactive)
EC50 [2]: 1.12 µM (active)
EC50 [3]: 21.4 µM (active)
EC50 [4]: > 180 µM (inactive)

CCOc1ccccc1C(=O)Nc1ccc2nc(N3CCN(c4ncccn4)CC3)cc(C)c2c1
IC50 [6]: > 80 µM (inactive)

COc1ccc(CN2C(=O)/C(=C/c3ccncc3)SC2=S)cc1
CC50 [7]: 18 µM (active)
EC50 (BJ [8]): > 75 µM (inconclusive)
IC50 (cells): 21.2 µM (active)
CC50 [9]: 7.52 µM (active)
EC50 (BJ [10]): 13.8 µM (active)
EC50 [11]: 16.9 µM (active)
CC50 [12]: 10.3 µM (active)
EC50 (BJ [13]): > 150 µM (inconclusive)

Cc1oc2c(C)c3oc(=O)c(CC(=O)N[C@@H](CC(C)C)C(=O)N[C@@H](Cc4ccccc4)C(=O)O)c(C)c3cc2c1C
IC50 [14]: 4.59 µM (active)
IC50 (Genome polyprotein): 72.6 µM (active)

CSc1ccc(COC(=O)c2cc([N+](=O)[O-])ccc2N2CCOCC2)cc1
IC50 (Fatty acid synthase [15]): 4.08 µM (active)
IC50 (Fatty acid synthase [16]): 3.26 µM (active)
EC50 (BJ [8]): 0.385 µM (active)
EC50 (BJ [10]): 0.652 µM (inconclusive)
IC50 [6]: > 80 µM (inactive)
AC50 (Paired box protein Pax-8): 0.619 µM (active)
EC50 [11]: 0.653 µM (active)
EC50 (BJ [13]): 1.09 µM (active)

Cc1cccc(C(=O)CC(=O)c2cc(Cl)ccc2O)c1
EC50 [17]: 8.03 µM (active)
EC50 [1]: 34.3 µM (active)
EC50 [2]: 1.09 µM (active)
EC50 [3]: 3.18 µM (active)
EC50 [4]: > 180 µM (inactive)
EC50 [18]: 9.23 µM (active)
EC50 (Streptococcus): 1.61 µM (active)
EC50 [19]: 1.01 µM (active)
EC50 [20]: 5.25 µM (active)
